Key:
human skin [1] = test: Forearm controlled application test (FCAT), transepidermal water loss (TEWL)
Protocol: (§1) Topical compositions were tested on skin samples for their ability to improve or maintain skin hydration and limit transepidermal water loss (TEWL). Measurement of the TEWL, expressed in grams per square meter and per hour, is used for studying the water barrier function of the human skin. The more perfect the skin protective coat, the higher the water content and the lower the TEWL. For each of the tests, a negative control was used, which included treatment with 8% SLS. An untreated skin sample was also tested for comparison. The tests were performed using the forearm controlled application test (FCAT) methodology. The various samples were applied to test sites on a forearm over the course of several days. On each day, up to six applications were made and the change in TEWL and hydration levels were recorded. The hydration levels were measured using a Corneometer® based on capacitance measurement of a dielectric medium. The Corneometer® measures the change in the dielectric constant due to skin surface hydration changing the capacitance of a precision capacitor. The measurement can detect even slight changes in the hydration level.
(§2) The compositions that were tested include the following, in weight %, based on the weight of the total composition: […]

human skin [2] = test: Forearm controlled application test (FCAT), skin hydration by Corneometer
Protocol: as §1, §2

[3] = Example 2, wet and dry application, after 3 and 5 days of treatment

CCCCCCCCCCCCOS(=O)(=O)[O-].[Na+] [negative control, sodium lauryl sulfate]
TEWL (change vs baseline) (human skin [1]; Example 1, FIG. 6, up to six applications per day over several days): highest TEWL | change in TEWL (human skin [1]; [3]): significant TEWL | hydration levels (change vs baseline) (human skin [2]; Example 1, FIG. 5, up to six applications per day over several days): lowest hydration levels | change in hydration levels (human skin [2]; [3]): significant reduction in hydration level
